Key:
[1] = tested on: human prostate cancer cells (PC3); assay: Cytotoxicity by SRB assay, PC3 cells; type: cell-based; details: 0.01 μM to 100 μM, 72 h
Description: (§1) The human prostate cancer cells (PC3) and human osteosarcoma cells (MG-63) were obtained from Nawah Scientific Inc. (Mokatam, Cairo, Egypt) and cultured in DMEM (Dulbecco's modified eagle's medium), Gibco, USA, supplemented with fetal bovine serum (FBS) at a concentration of 10% and 100 U/mL of penicillin and streptomycin (PS). The Cells were incubated at 37° C. in a humidified environment that contained 5% CO2. Cells were seeded in 96-well plates as aliquots of 100 μL cell suspension and incubated in a complete media for 24 h. afterward, cells were treated with N′-[(4-chlorobenzoyl)oxy]-1,3-benzothiazole-2-carboximidamide at diverse concentrations ranging from 0.01 μM to 100 μM for 72 h. Then, cells were fixed at 4° C. for one hour with 150 μL of 10% trichloroacetic acid (TCA). After washing the cells five times with distilled water, 70 μL of sulforhodamine (SRB) solution (0.4% w/v) was added and incubated for 10 min at room temperature in a dark place. […] Then, 150 μL of Tris pH 10.5 (10 mM) was added, and the absorbance was measured at 540 nm using a BMG LABTECH®--FLUOstar Omega microplate reader (Ortenberg, Germany). Half maximal inhibitory concentrations (IC50) values were calculated for each experiment using GraphPad Prism 6 software. […] The inhibition was calculated using the following equation: Inhibition %=100−Average Viability

[2] = tested on: human osteosarcoma cells (MG-63); assay: Cytotoxicity by SRB assay, MG-63 cells; type: cell-based; details: 0.01 μM to 100 μM, 72 h
Description: as §1

melting point: 160 to 162 °C
SMILES: N/C(Cc1nc2ccccc2s1)=N\OC(=O)c1ccc(Cl)cc1
antiproliferative activity against PC3 cells [1]: excellent antiproliferative activities | antiproliferative activity against MG-63 cells [2]: excellent antiproliferative activities
